# BindingDB's records for doi:10.1016/j.bmc.2008.07.037 (Merck Research Laboratories, 2008)
# Test: Inhibition of glucocorticoid-mediated human MMP1 expression in PMA stimulated A549 cells assessed as MMP1 protein level by ELISA
row,Structure (SMILES),EC50 [nM]
1,"C[C@H]1C[C@H]2[C@@H]3CCC4=CC(=O)C=C[C@]4(C)[C@@]3(F)[C@@H](O)C[C@]2(C)[C@@]1(OC(=O)NC(C)(C)CC(C)(C)C)C(=O)CO [(8S,9R,10S,11S,13S,14S,16S,17R)-9-fluoro-11-hydroxy-17-(2-hydroxyacetyl)-10,13,16-trimethyl-3-oxo-6,7,8,9,10,11,12,13,14,15,16,17-dodecahydro-3H-cyclopenta[a]phenanthren-17-yl 2,4,4-trimethylpentan-2-ylcarbamate]",23.2
2,"C[C@H]1C[C@H]2[C@@H]3CCC4=CC(=O)C=C[C@]4(C)[C@@]3(F)[C@@H](O)C[C@]2(C)[C@@]1(OC(=O)NCCC(C)(C)C)C(=O)CO [(8S,9R,10S,11S,13S,14S,16S,17R)-9-fluoro-11-hydroxy-17-(2-hydroxyacetyl)-10,13,16-trimethyl-3-oxo-6,7,8,9,10,11,12,13,14,15,16,17-dodecahydro-3H-cyclopenta[a]phenanthren-17-yl 3,3-dimethylbutylcarbamate]",21
3,"C[C@H]1C[C@H]2[C@@H]3CCC4=CC(=O)C=C[C@]4(C)[C@@]3(F)[C@@H](O)C[C@]2(C)[C@@]1(OC(=O)NC1CCCCC1)C(=O)CO [(8S,9R,10S,11S,13S,14S,16S,17R)-9-fluoro-11-hydroxy-17-(2-hydroxyacetyl)-10,13,16-trimethyl-3-oxo-6,7,8,9,10,11,12,13,14,15,16,17-dodecahydro-3H-cyclopenta[a]phenanthren-17-yl cyclohexylcarbamate]",1.3
4,"C[C@H]1C[C@H]2[C@@H]3CCC4=CC(=O)C=C[C@]4(C)[C@@]3(F)[C@@H](O)C[C@]2(C)[C@@]1(OC(=O)NCC(C)(C)C)C(=O)CO [(8S,9R,10S,11S,13S,14S,16S,17R)-9-fluoro-11-hydroxy-17-(2-hydroxyacetyl)-10,13,16-trimethyl-3-oxo-6,7,8,9,10,11,12,13,14,15,16,17-dodecahydro-3H-cyclopenta[a]phenanthren-17-yl neopentylcarbamate]",0.1
5,"CCCCCNC(=O)O[C@]1(C(=O)CO)[C@@H](C)C[C@H]2[C@@H]3CCC4=CC(=O)C=C[C@]4(C)[C@@]3(F)[C@@H](O)C[C@@]21C [(8S,9R,10S,11S,13S,14S,16S,17R)-9-fluoro-11-hydroxy-17-(2-hydroxyacetyl)-10,13,16-trimethyl-3-oxo-6,7,8,9,10,11,12,13,14,15,16,17-dodecahydro-3H-cyclopenta[a]phenanthren-17-yl pentylcarbamate]",18
6,"CCC(C)NC(=O)O[C@]1(C(=O)CO)[C@@H](C)C[C@H]2[C@@H]3CCC4=CC(=O)C=C[C@]4(C)[C@@]3(F)[C@@H](O)C[C@@]21C (stereo partly drawn) [(8S,9R,10S,11S,13S,14S,16S,17R)-9-fluoro-11-hydroxy-17-(2-hydroxyacetyl)-10,13,16-trimethyl-3-oxo-6,7,8,9,10,11,12,13,14,15,16,17-dodecahydro-3H-cyclopenta[a]phenanthren-17-yl sec-butylcarbamate]",0.8
7,"CCC(C)(C)NC(=O)O[C@]1(C(=O)CO)[C@@H](C)C[C@H]2[C@@H]3CCC4=CC(=O)C=C[C@]4(C)[C@@]3(F)[C@@H](O)C[C@@]21C [(8S,9R,10S,11S,13S,14S,16S,17R)-9-fluoro-11-hydroxy-17-(2-hydroxyacetyl)-10,13,16-trimethyl-3-oxo-6,7,8,9,10,11,12,13,14,15,16,17-dodecahydro-3H-cyclopenta[a]phenanthren-17-yl tert-pentylcarbamate]",53.3
8,"COC(=O)[C@H](C)NC(=O)O[C@]1(C(=O)CO)[C@@H](C)C[C@H]2[C@@H]3CCC4=CC(=O)C=C[C@]4(C)[C@@]3(F)[C@@H](O)C[C@@]21C [(11beta,16beta)-9-Fluoro-11,21-dihydroxy-16-methyl-3,20-dioxopregna-1,4-dien-17-yl (1S)-1-(methoxycarbonyl)-ethylcarbamate]",83
9,"C[C@H](NC(=O)O[C@]1(C(=O)CO)[C@@H](C)C[C@H]2[C@@H]3CCC4=CC(=O)C=C[C@]4(C)[C@@]3(F)[C@@H](O)C[C@@]21C)c1ccccc1 [(11beta,16beta)-9-Fluoro-11,21-dihydroxy-16-methyl-3,20-dioxopregna-1,4-dien-17-yl (1S)-1-phenylethylcarbamate]",4.9
10,"C=CCNC(=O)O[C@]1(C(=O)CO)[C@@H](C)C[C@H]2[C@@H]3CCC4=CC(=O)C=C[C@]4(C)[C@@]3(F)[C@@H](O)C[C@@]21C [(11beta,16beta)-9-Fluoro-11,21-dihydroxy-16-methyl-3,20-dioxopregna-1,4-dien-17-yl allylcarbamate]",39
11,"CCCCNC(=O)O[C@]1(C(=O)CO)[C@@H](C)C[C@H]2[C@@H]3CCC4=CC(=O)C=C[C@]4(C)[C@@]3(F)[C@@H](O)C[C@@]21C [(11beta,16beta)-9-Fluoro-11,21-dihydroxy-16-methyl-3,20-dioxopregna-1,4-dien-17-yl butylcarbamate]",22
12,"C[C@H]1C[C@H]2[C@@H]3CCC4=CC(=O)C=C[C@]4(C)[C@@]3(F)[C@@H](O)C[C@]2(C)[C@@]1(OC(=O)NC1CCCC1)C(=O)CO [(11beta,16beta)-9-Fluoro-11,21-dihydroxy-16-methyl-3,20-dioxopregna-1,4-dien-17-yl cyclopentylcarbamate]",2.8
13,"CCNC(=O)O[C@]1(C(=O)CO)[C@@H](C)C[C@H]2[C@@H]3CCC4=CC(=O)C=C[C@]4(C)[C@@]3(F)[C@@H](O)C[C@@]21C [(11beta,16beta)-9-Fluoro-11,21-dihydroxy-16-methyl-3,20-dioxopregna-1,4-dien-17-yl ethylcarbamate]",15.9
14,"CC(C)NC(=O)O[C@]1(C(=O)CO)[C@@H](C)C[C@H]2[C@@H]3CCC4=CC(=O)C=C[C@]4(C)[C@@]3(F)[C@@H](O)C[C@@]21C [(11beta,16beta)-9-Fluoro-11,21-dihydroxy-16-methyl-3,20-dioxopregna-1,4-dien-17-yl isopropylcarbamate]",1.9
15,"CCCNC(=O)O[C@]1(C(=O)CO)[C@@H](C)C[C@H]2[C@@H]3CCC4=CC(=O)C=C[C@]4(C)[C@@]3(F)[C@@H](O)C[C@@]21C [(11beta,16beta)-9-Fluoro-11,21-dihydroxy-16-methyl-3,20-dioxopregna-1,4-dien-17-yl propylcarbamate]",18.7
16,"C[C@H]1C[C@H]2[C@@H]3CCC4=CC(=O)C=C[C@]4(C)[C@@]3(F)[C@@H](O)C[C@]2(C)[C@@]1(OC(=O)NC(C)(C)C)C(=O)CO [(11beta,16beta)-9-Fluoro-11,21-dihydroxy-16-methyl-3,20-dioxopregna-1,4-dien-17-yl tert-butylcarbamate]",1.6
17,"C[C@H]1C[C@H]2[C@@H]3CCC4=CC(=O)C=C[C@]4(C)[C@@]3(F)[C@@H](O)C[C@]2(C)[C@@]1(OC(=O)NC12CC3CC(CC(C3)C1)C2)C(=O)CO [Adamantan-1-yl-carbamic acid (8S,9R,10S,11S,13S,14S,16S,17R)-9-fluoro-11-hydroxy-17-(2-hydroxy-acetyl)-10,13,16-trimethyl-3-oxo-6,7,8,9,10,11,12,13,14,15,16,17-dodecahydro-3H-cyclopenta[a]phenanthren-17-yl este]",3.4
